Key:
Format in all cases: in vivo, human
[1] = Study 2: plasma concentration, HPLC; details: human, plasma, po; for concentration at 0.2 h: 0.20 h; for concentration at 0.5 h: 0.50 h; for concentration at 1.5 h: 1.50 h
Source text: (§1) Blood samples were taken at various times.

glucose [2] = experiment: Study 2: whole blood glucose, 2 mg AG-EE 388 ZW capsule or tablet, crossover
Source text: as §1

glucose [3] = experiment: Study 3: whole blood glucose, single fasting test subject, crossover

CCOc1cc(CC(=O)NC(CC(C)C)c2ccccc2N2CCCCC2)ccc1C(=O)O (racemic) [AG-EE 388 ZW, 2-ethoxy-4-[N-[1-(2-piperidino-phenyl)-3-methyl-1-butyl]aminocarbonylmethyl]-benzoic acid]
concentration at 0.2 h ([1]; 2 mg, 2 mg capsule): 0.9 ng/mL
concentration at 0.33 h ([1]; 2 mg, 2 mg capsule): 17.5 ng/mL
concentration at 0.5 h ([1]; 2 mg, 2 mg capsule): 44.9 ng/mL
concentration at 0.75 h ([1]; 2 mg, 2 mg capsule): 66.4 ng/mL
concentration at 1 h ([1]; 2 mg, 2 mg capsule): 73.7 ng/mL
concentration at 1.5 h ([1]; 2 mg, 2 mg capsule): 65.1 ng/mL
concentration at 2 h ([1]; 2 mg, 2 mg capsule): 50.8 ng/mL
concentration at 3 h ([1]; 2 mg, 2 mg capsule): 27.9 ng/mL
concentration at 4 h ([1]; 2 mg, 2 mg capsule, 4.00 h): 16.8 ng/mL
concentration at 5 h ([1]; 2 mg, 2 mg capsule): 12.2 ng/mL
concentration at 6 h ([1]; 2 mg, 2 mg capsule): 7.8 ng/mL
concentration at 9 h ([1]; 2 mg, 2 mg capsule): 3.3 ng/mL
concentration at 0.2 h ([1]; 2 mg, 2 mg tablet): 15 ng/mL
concentration at 0.33 h ([1]; 2 mg, 2 mg tablet): 55.6 ng/mL
concentration at 0.5 h ([1]; 2 mg, 2 mg tablet): 75.6 ng/mL
concentration at 0.75 h ([1]; 2 mg, 2 mg tablet): 83.5 ng/mL
concentration at 1 h ([1]; 2 mg, 2 mg tablet): 81.3 ng/mL
concentration at 1.5 h ([1]; 2 mg, 2 mg tablet): 65.9 ng/mL
concentration at 2 h ([1]; 2 mg, 2 mg tablet): 51.3 ng/mL
concentration at 3 h ([1]; 2 mg, 2 mg tablet): 32.4 ng/mL
concentration at 5 h ([1]; 2 mg, 2 mg tablet): 13.2 ng/mL
concentration at 6 h ([1]; 2 mg, 2 mg tablet): 9.5 ng/mL
concentration at 9 h ([1]; 2 mg, 2 mg tablet): 5.2 ng/mL
Cmax ([1]; 2 mg capsule p.o., read-out: Maximum concentration): 74 ± 15 ng/mL
Glucose (mean) (glucose [2]; 2 mg capsule, 0 h): 5.0 mmol/L
Glucose (mean) (glucose [2]; 2 mg capsule, 0.20 h): 5.0 mmol/L
Glucose (mean) (glucose [2]; 2 mg capsule, 0.33 h): 4.9 mmol/L
Glucose (mean) (glucose [2]; 2 mg capsule, 0.50 h): 4.8 mmol/L
Glucose (mean) (glucose [2]; 2 mg capsule, 0.75 h): 4.6 mmol/L
Glucose (mean) (glucose [2]; 2 mg capsule, 1.00 h): 4.4 mmol/L
Glucose (mean) (glucose [2]; 2 mg capsule, 1.50 h): 3.9 mmol/L
Glucose (mean) (glucose [2]; 2 mg capsule, 2.00 h (breakfast)): 3.7 mmol/L
Glucose (mean) (glucose [2]; 2 mg capsule, 3.00 h): 4.4 mmol/L
Glucose (mean) (glucose [2]; 2 mg capsule, 4.00 h): 4.0 mmol/L
Glucose (mean) (glucose [2]; 2 mg capsule, 5.00 h (lunch)): 4.2 mmol/L
Glucose (mean) (glucose [2]; 2 mg capsule, 6.00 h): 4.8 mmol/L
Glucose (mean) (glucose [2]; 2 mg capsule, 9.00 h): 5.0 mmol/L
Glucose (mean) (glucose [2]; 2 mg capsule, 24.00 h): 4.9 mmol/L
Time at which glucose levels return to original level (glucose [2]; 2 mg p.o.): 6 h
Glucose (mean) (glucose [2]; 2 mg tablet, 0 h): 4.9 mmol/L
Glucose (mean) (glucose [2]; 2 mg tablet, 0.20 h): 5.0 mmol/L
Glucose (mean) (glucose [2]; 2 mg tablet, 0.33 h): 4.9 mmol/L
Glucose (mean) (glucose [2]; 2 mg tablet, 0.50 h): 4.6 mmol/L
Glucose (mean) (glucose [2]; 2 mg tablet, 0.75 h): 4.4 mmol/L
Glucose (mean) (glucose [2]; 2 mg tablet, 1.00 h): 4.1 mmol/L
Glucose (mean) (glucose [2]; 2 mg tablet, 1.50 h): 3.8 mmol/L
Glucose (mean) (glucose [2]; 2 mg tablet, 2.00 h (breakfast)): 3.8 mmol/L
Glucose (mean) (glucose [2]; 2 mg tablet, 3.00 h): 4.7 mmol/L
Glucose (mean) (glucose [2]; 2 mg tablet, 4.00 h): 4.2 mmol/L
Glucose (mean) (glucose [2]; 2 mg tablet, 5.00 h (lunch)): 4.2 mmol/L
Glucose (mean) (glucose [2]; 2 mg tablet, 6.00 h): 5.2 mmol/L
Glucose (mean) (glucose [2]; 2 mg tablet, 9.00 h): 5.0 mmol/L
Glucose (mean) (glucose [2]; 2 mg tablet, 24.00 h): 4.8 mmol/L
Time of maximum blood sugar reduction (glucose [3]; 2 mg): 2.0 h
Glucose, deviation against t = 0 (glucose [3]; 2 mg capsule, 0 h): 0%
Glucose, deviation against t = 0 (glucose [3]; 2 mg, 0.50 h): 0%
Glucose, deviation against t = 0 (glucose [3]; 2 mg, 0.75 h): 0%
Glucose, deviation against t = 0 (glucose [3]; 2 mg, 1.00 h): -5%
Glucose, deviation against t = 0 (glucose [3]; 2 mg, 1.25 h): -12%
Glucose, deviation against t = 0 (glucose [3]; 2 mg, 1.50 h): -18%
Glucose, deviation against t = 0 (glucose [3]; 2 mg, 1.75 h): -23%
Glucose, deviation against t = 0 (glucose [3]; 2 mg, 2.00 h): -29%
Glucose, deviation against t = 0 (glucose [3]; 2 mg, 2.50 h): -27%
Glucose, deviation against t = 0 (glucose [3]; 2 mg, 3.00 h): -21%
Glucose, deviation against t = 0 (glucose [3]; 2 mg, 4.00 h): -17%
Glucose, deviation against t = 0 (glucose [3]; 2 mg, 5.00 h): -17%
Glucose, deviation against t = 0 (glucose [3]; 2 mg, 6.00 h): -16%
Maximum lowering of blood glucose (glucose [3]; 4 mg): -38%
Onset of effect (glucose [3]; 4 mg): about 1.0 hour
Time of maximum blood sugar reduction (glucose [3]; 4 mg): 2.0 h
Glucose, deviation against t = 0 (glucose [3]; 4 mg capsule, 0 h): 0%
Glucose, deviation against t = 0 (glucose [3]; 4 mg, 0.50 h): -3%
Glucose, deviation against t = 0 (glucose [3]; 4 mg, 0.75 h): -1%
Glucose, deviation against t = 0 (glucose [3]; 4 mg, 1.00 h): -7%
Glucose, deviation against t = 0 (glucose [3]; 4 mg, 1.25 h): -15%
Glucose, deviation against t = 0 (glucose [3]; 4 mg, 1.50 h): -21%
Glucose, deviation against t = 0 (glucose [3]; 4 mg, 1.75 h): -32%
Glucose, deviation against t = 0 (glucose [3]; 4 mg, 2.00 h): -38%
Glucose, deviation against t = 0 (glucose [3]; 4 mg, 2.50 h): -34%
Glucose, deviation against t = 0 (glucose [3]; 4 mg, 3.00 h): -28%
Glucose, deviation against t = 0 (glucose [3]; 4 mg, 3.50 h): -24%
Glucose, deviation against t = 0 (glucose [3]; 4 mg, 4.00 h): -26%
Glucose, deviation against t = 0 (glucose [3]; 4 mg, 5.00 h): -24%
Glucose, deviation against t = 0 (glucose [3]; 4 mg, 6.00 h): -23%
Glucose, deviation against t = 0 (glucose [3]; 4 mg, 7.00 h): -20%
Glucose, deviation against t = 0 (glucose [3]; 4 mg, 8.00 h): -25%
